In one test the test system is β-catenin. Nature of the test: Western blot of cytosolic β-catenin in HEK 293 cells. The class given is cell-based. To be noted: HEK 293 cells; concentration- and time-dependent. As for the experimental part: (§1) Cells were harvested in cavitation buffer (5 mM HEPES, pH 7.4, 3 mM MgCl2, 1 mM EGTA, 250 mM sucrose) containing protease and phosphatase inhibitors and homogenized by nitrogen cavitation (200 p.s.i., for 5 minutes) in a cell disruption bomb (Parr Instrument Co.; Moline, Ill.). The cell homogenate was centrifuged twice at 700 g for 10 minutes to pellet the nuclei. The supernatant was further centrifuged at 100,000 g (Beckman SW50.1 rotor) for 1 hour to separate the membrane and cytosol fractions, and the resulting membrane pellet was washed three times with cavitation buffer before use in the assays (Zhang et al., Biochem. J. 343:541-9 (1999)). Immunoprecipitation and Western blot analysis of cell lysates were performed as described previously (Wan et al., Am. J. Pathol. 166:1379-92 (2005)).
In general terms: In western blotting, separated proteins are transferred to a membrane and probed.

The target in another test is T1, PTH1R (Homo sapiens, UniProt Q03431).
T1 sequence (Q03431 27-593): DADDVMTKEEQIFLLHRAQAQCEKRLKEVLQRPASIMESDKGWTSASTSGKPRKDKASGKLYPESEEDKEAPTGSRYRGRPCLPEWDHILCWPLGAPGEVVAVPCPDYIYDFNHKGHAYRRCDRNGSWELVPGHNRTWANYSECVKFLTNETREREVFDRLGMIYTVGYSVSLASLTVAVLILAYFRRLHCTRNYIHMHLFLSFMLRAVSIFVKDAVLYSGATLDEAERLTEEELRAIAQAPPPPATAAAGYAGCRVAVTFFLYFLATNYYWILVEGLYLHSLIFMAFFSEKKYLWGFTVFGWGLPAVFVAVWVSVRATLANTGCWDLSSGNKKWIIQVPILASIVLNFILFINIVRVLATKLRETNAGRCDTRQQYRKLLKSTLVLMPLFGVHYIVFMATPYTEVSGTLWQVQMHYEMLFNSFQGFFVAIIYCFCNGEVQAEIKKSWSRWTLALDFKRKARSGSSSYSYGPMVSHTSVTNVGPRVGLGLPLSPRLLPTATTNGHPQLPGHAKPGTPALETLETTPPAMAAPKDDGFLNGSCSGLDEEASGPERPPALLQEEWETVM
The test can be described thus: Co-immunoprecipitation of exogenous LRP5/LRP6 constructs with PTH1R in HEK293 cells. Format: cell-based. The settings on record: HEK293 cells.
Source text: PTH1R tagged with HA was subcloned into pcDNA3.1. cDNAs from human LRP5 (Mao et al., Mol. Cell. 7:801-9 (2001)) and LRP6 (Tamai et al., Nature 407:530-35 (2000)) tagged with HA and VSVG were subcloned into pCMV and pCS2^+, respectively. LRP6N+T (LRP6 N-terminal plus the transmembrane domain) and LRP6T+C (LRP6 transmembrane domain plus C-terminal) tagged with VSVG were subcloned into pCS2^+. LRP6N+1479m, LRP6N+1490m, LRP6N+1493m and LRP6N+1496m were generated by mutagenesis of either the serine (at amino acid 1490 or amino acid 1496) or threonine (at amino acid 1479 or amino acid 1493) to alanine LRP6N-IgG was generated by fusing the LRP6 extracellular domain with IgG (Tamai et al., Nature 407:530-35 (2000)). si-GFP (Wan et al., Am. J. Pathol. 166:1379-92 (2005)) and si-LRP6 plasmids were generated using a BS/U6 vector. Briefly, a 22-nucleotide oligo (oligo 1) corresponding to nucleotides 2981 to 3002 of the human LRP6 coding region was first inserted into the BS/U6 vector digested with ApaI (blunted) and HindIII. The inverted motif that contains the six-nucleotide spacer and five Ts (oligo 2) was then subcloned into the HindIII and EcoRI sites of the intermediate plasmid to generate BS/U6/LRP5/6.
as §1

Test [1] relates to phosphorylated LRP6 in osteoblasts. Nature of the test: Immunohistochemistry of phosphorylated LRP6 in femur sections, rats. Format: in vivo, rat. As for the experimental part: For the experiments in which rats or mice were administered PTH as single-dose injection, five-month-old male Sprague Dawley rats (Charles River Laboratories; Wilmington, Mass.) or two-month-old male C57BL/J6 mice (Jackson Laboratory; Bar Harbor, Me.) (6 per group) were administered a single dose of either vehicle (1 mM acetic acid in sterile PBS) or PTH (1-34) (Bachem Inc.; Torrance, Calif.) at 40 μg/kg in a volume of 100 μl. In the mouse model, mouse recombinant Wnt3a (R&D Systems; Minneapolis, Minn.) was injected at 25 μg/kg in a volume of 100 μl. All treatments were through bolus intravenous injection via the tail vein. Rats/mice were sacrificed at 0.5, 2, 8 and 24 hours after injection.
Formalin-fixed femur or tibia tissue sections of 5 μm thickness from rats or mice were processed with antigen retrieval and hydrogen peroxide treatment prior to incubation with primary monoclonal antibody specific for β-catenin (BD Biosciences; San Jose, Calif.), goat polyclonal antibody sclerostin (R&D Systems; Minneapolis, Minn.) or rabbit polyclonal phosphorylated LRP6 (Ab1490) for 1 hour at room temperature or overnight at 4° C. […] In the mouse model, numbers of total osteoblasts and numbers of β-catenin-positive osteoblasts were counted in three random high power fields in a 2-mm square, 1 mm distal to the lowest point of the growth plate in the secondary spongiosa. […]

Take Parathyroid hormone [PTH]: the “levels of β-catenin in the cytosol” value in the test with β-catenin is recorded as “enhanced”. Besides, in the test with PTH1R, the “binding of exogenous PTH1R to exogenous LRP6” value was “enhances”. In the test with PTH1R (exogenous LRP5 and PTH1R), the “binding of LRP5 to PTH1R” value is on record as “did not enhance”. For the same substance, the “phosphorylation of LRP6 in preosteoblasts or osteoblasts at the surface of trabecular bone” value in test [1] (single dose of PTH (1-34) 40 μg/kg, antibody specific for phosphorylated PPPSP) is reported as “stimulated”. In test [1] (single dose, same tissue), the “amount of total LRP6 protein” value was “remained unchanged”.
